Measured values from patent US12448347B2, “Polymorphic forms of (R)-oxybutynin hydrochloride” (APNIMED, INC. (DELAWARE), priority 2020, dated 2025).

Experiments:
Format in all cases: physicochemical
[1] = Hygroscopicity of the isolated solids (observation); details: HCl
[2] = Solid form stability / interconversion on drying, storage or slurrying (XRPD); details: for XRPD pattern after prolonged slurrying: slurry in MIBK and in heptanes separately, RT (2 weeks)
[3] = DVS analysis (moisture sorption/desorption)
[4] = Humidity stress in open containers with XRPD analysis; details: for XRPD form after humidity exposure / appearance of solids after humidity exposure: 24 hours, open container
Procedure: Samples of R-oxybutynin HCl Form B were exposed to 75% RH and 85% RH for 24 hours, in open containers.

## CCN(CC)CC#CCOC(=O)[C@](O)(c1ccccc1)C1CCCCC1.Cl [Form A, (R)-oxybutynin HCl]
[1]
  hygroscopicity of isolated solids: hygroscopic
[2]; dried under vacuum at RT for 24 hours
  crystalline form obtained after drying: Form B
[2]
  XRPD pattern after prolonged slurrying: Form C diffraction patterns were observed
[2]; storage at ambient conditions
  crystalline form obtained upon storage: Form B
[2]; vacuum drying at 50° C. (24 h, 2 days in Table 2), HCl
  crystalline form obtained after high temperature drying (XRPD): Form C was isolated

## CCN(CC)CC#CCOC(=O)[C@](O)(c1ccccc1)C1CCCCC1.Cl [Form B, (R)-oxybutynin HCl]
[3]; DVS analysis
  hygroscopicity by DVS: hygroscopic
[3]; XRPD after DVS
  physical form of post-DVS sample (XRPD): Form B remained
[3]; between 75% and 95% RH
  weight gain (DVS): 23%
[3]; desorption from 95% to 5% RH
  weight change upon desorption (DVS): All the weight gained was lost
[3]; from 5% RH to 95% RH
  weight gain (DVS): 26.6%
[4]; 75% RH
  XRPD form after humidity exposure: consistent with Form B
  appearance of solids after humidity exposure: remained free flowing
[4]; 85% RH
  XRPD form after humidity exposure: composed of Form B
  appearance of solids after humidity exposure: not free flowing
[4]; 93% RH
  outcome of humidity stress: deliquesced
[2]
  XRPD pattern after prolonged slurrying: Form C diffraction patterns were observed

## CCN(CC)CC#CCOC(=O)[C@](O)(c1ccccc1)C1CCCCC1.Cl [Form C, (R)-oxybutynin HCl]
[1]
  hygroscopicity of isolated solids: non-hygroscopic
